Results on four molecules are retold here after patent US8088727B2, “Method for reducing the risk, lessening the symptom, or delaying the onset of insulin resistance by administering SS-31” (Cornell University, priority 2008, dated 2012).

For data set [1], the system named is several mammalian cell types. To be noted: several mammalian cell types (Zhao et al. 2003); cited from earlier work.
The subject of data set [2] is mitochondrial H2O2 emission in permeabilized skeletal muscle fiber bundles. Put plainly: Mitochondrial H2O2 emission in permeabilized skeletal muscle fiber bundles, SS-31 dose response in vitro. Format: cell-based, rat. To be noted: dose response curve in vitro (FIG. 3A), succinate-supported respiration. The method, then: Preparation of permeabilized muscle fiber bundles. Briefly, small portions (25 mg) of soleus, RG, and WG muscle were dissected and placed in ice-cold buffer X, containing 60 mM K-MES, 35 mM KCl, 7.23 mM K2 EGTA, 2.77 mM CaK2EGTA, 20 mM imidazole, 0.5 mM DTT, 20 mM taurine, 5.7 mM ATP, 15 mM PCr, and 6.56 mM MgCl2·6H2O (pH 7.1, 295 mosmol/kg H2O). The muscle was trimmed of connective tissue and cut down to fiber bundles (2×7 mm, 4-8 mg wet wt). With a pair of needle-tipped forceps under a dissecting microscope, fibers were gently separated from one another to maximize surface area of the fiber bundle, leaving only small regions of contact. […]
Mitochondrial respiration and H2O2 emission measurements. […] Mitochondrial H2O2 emission was measured at 30° C. during state 4 respiration in Buffer Z (10 μg/ml oligomycin) by continuously monitoring oxidation of Amplex Red using a Spex Fluoromax 3 (Jobin Yvon, Ltd.) spectrofluorometer with temperature control and magnetic stirring at >1000 rpm. […] After baseline fluorescence (reactants only) was established, the reaction was initiated by addition of a permeabilized fiber bundle to 300 μl of buffer Z containing 5 μM Amplex Red and 0.5 U/ml HRP, with succinate at […]. […] The rate of respiration is expressed as pmol·s^−1·mg dry weight^−1, and mitochondrial H2O2 emission expressed as pmol·min^−1·mg dry weight^−1. […]

The test system of data set [3] is skeletal muscle mitochondrial H2O2 emission of high fat fed rats. Nature of the data set: Mitochondrial H2O2 emission in permeabilized fibers from high fat fed rats given SS-31. The data set is classed as in vivo, rat. As to conditions: for increase in mitochondrial oxidant emitting potential: high fat diet (60%) six weeks. From the text:
(§1) Next, rats were placed on a high fat diet (60%) for six weeks with or without daily administration of SS-31.

The subject of data set [4] is skeletal muscle mitochondrial respiration of high fat fed rats. Put plainly: Mitochondrial respiration in permeabilized fibers from high fat fed rats given SS-31. Format: in vivo, rat.
From the text: as §1

For data set [5] the following is noted: rat, in vivo.
From the text: as §1

The subject of data set [6] is intracellular redox environment in skeletal muscle. Nature of the data set: Total glutathione and GSH/GSSG ratio in skeletal muscle of high fat fed rats. Format: in vivo, rat. The method, then: Protein homogenates were prepared by homogenizing 100 mg of powered frozen muscle in a buffer containing in mM: 10 Tris, 1 EDTA, 1 EGTA, 2 NaOrthovanadate, 2 NaPyrophosphate, 5 NaF, protease inhibitor cocktail (Complete) at pH 7.2. After homogenization, 1% Triton X-100 was added to the protein suspension, cotexed and allowed to sit on ice for 5 minutes. The tubes were then spun at 10,000 rpm for 10 minutes to pellet the insoluble debris. For GSSG measurement, tissue was homogenized in a solution containing 20 mM Methyl-2-vinylpyridinium triflate to scavenge all reduced thiols in the sample. Total GSH and GSSG were then measured using the reagents and calibration set provided by the GSH/GSSG assay (Oxis Research) according to the manufacturer's instructions, with small modifications as needed.
To establish a link between the increased mitochondrial oxidant emission brought about by high fat diet and its effect on overall redox environment of skeletal muscle, both GSH and GSSG were measured in skeletal muscle of chow fed and high fat fed rats under two conditions; after a 10 h fast and 1 h after administration of a standard glucose load (oral gavage, 10 h fasted). […]

Data set [7] concerns high fat diet-induced insulin resistance. Put plainly: Oral glucose tolerance test after six week high fat diet. Format: in vivo, rat. The method, then: To determine whether mitochondrial-derived changes in intracellular redox environment may be linked to the etiology of high fat diet-induced insulin resistance, oral glucose tolerance tests were performed in rats after the six week high fat diet. On the day of experiments, food was removed 10 hr prior to administration of a 2 g/kg glucose solution via gavage. Glucose levels were determined on whole blood samples (Lifescan, Milpitas, Calif.). Serum insulin levels were determined via a rat/mouse ELISA kit (Linco Research, St. Charles, Mo.). Fasting data were used to determine homeostatic model assessment (HOMA)-calculated as fasting insulin (μU/ml) x fasting glucose (mM)/22.5.

For the next data set, the system named is Akt. Nature of the data set: Akt phosphorylation in skeletal muscle after oral glucose load. The data set is classed as in vivo, rat. As to conditions: skeletal muscle of high fat fed rats, 1 h after oral glucose load (FIGS. 4E and 4F). The method, then: Increased homeostatic model assessment (HOMA, FIG. 4C), and greater area under the curves for both blood glucose and insulin (FIG. 4D) confirmed the development of insulin resistance in high fat fed rats. […] To further assess insulin sensitivity, the phosphorylation state of the insulin signaling protein Akt in skeletal muscle from animals was measured after a 10 h fast or 1 h after receiving an oral glucose load. In response to glucose ingestion, Akt phosphorylation increased ˜5-fold in skeletal muscle of chow-fed controls but was unchanged in high fat fed rats (FIGS. 4E and 4F), confirming the presence of insulin resistance at the level of insulin signaling.

For a further data set, the system named is fatty (fa/fa) Zucker rat. As to conditions: SS-31 1.0-5.0 mg/kg i.p. or oral, approximately 6 weeks.
A further data set addresses mu-opioid receptor (Homo sapiens, UniProt P35372). As to conditions: cited from earlier work.
Data set [8] concerns mitochondrial inner membrane. To be noted: while scavenging ROS; cited from earlier work.
For data set [9], the system named is hearts subjected to myocardial stunning. To be noted: hearts subjected to myocardial stunning (Zhao et al. 2004); cited from earlier work.
The next data set concerns pancreatic islet cells. As to conditions: pancreatic islet cells after transplantation (Thomas et al. 2005); cited from earlier work.
The test system of data set [10] is animal models of Parkinson's and amyotrophic lateral sclerosis disease. To be noted: animal models of Parkinson's and amyotrophic lateral sclerosis disease (Petri et al. 2006; Szeto et al. 2006); cited from earlier work.

Square brackets hold non-standard residues; d marks the D form. Ends that are not written are not given here. Peptide text beside a SMILES is read from it. Dmt = Cc1cc(O)cc(C)c1C[C@H](N)C(=O)O

Sequence of mu-opioid receptor (P35372 whole entry, species assumed): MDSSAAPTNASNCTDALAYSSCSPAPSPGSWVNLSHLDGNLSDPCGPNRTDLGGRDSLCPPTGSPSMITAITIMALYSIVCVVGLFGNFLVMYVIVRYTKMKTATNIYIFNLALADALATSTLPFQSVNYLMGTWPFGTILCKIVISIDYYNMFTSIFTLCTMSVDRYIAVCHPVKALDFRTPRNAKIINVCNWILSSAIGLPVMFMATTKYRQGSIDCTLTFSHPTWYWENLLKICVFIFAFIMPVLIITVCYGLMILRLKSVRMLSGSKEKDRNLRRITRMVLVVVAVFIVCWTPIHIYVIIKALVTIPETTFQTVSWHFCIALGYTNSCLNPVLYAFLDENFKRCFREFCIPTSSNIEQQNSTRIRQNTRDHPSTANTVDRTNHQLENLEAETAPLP
Description for fatty (fa/fa) Zucker rat: Measured outcomes include body weight, fasting glucose/insulin/free fatty acid, glucose tolerance (OGTT), in vitro muscle insulin sensitivity (incubation), markers of insulin signaling (Akt-P, IRS-P), mitochondrial function studies on permeabilized fibers (respiration, H2O2 emission), markers of intracellular oxidative stress (lipid peroxidation, GSH/GSSG ratio, aconitase activity) and mitochondrial enzyme activity. […] Successful prevention of insulin resistance by the aromatic-cationic peptides of the invention is indicated by a reduction in one or more of the markers associated with insulin resistance or mitochondrial dysfunction enumerated above.
Measured outcomes include body weight, fasting glucose/insulin/free fatty acid, glucose tolerance (OGTT), in vitro muscle insulin sensitivity (incubation), markers of insulin signaling (Akt-P, IRS-P), mitochondrial function studies on permeabilized fibers (respiration, H2O2 emission), markers of intracellular oxidative stress (lipid peroxidation, GSH/GSSG ratio, aconitase activity) and mitochondrial enzyme activity. […] Successful treatment of insulin resistance by the aromatic-cationic peptides of the invention is indicated by a reduction in one or more of the markers associated with insulin resistance or mitochondrial dysfunction enumerated above.

On to 2′,6′-Dmt-D-Arg-Phe-Lys-NH2 [SS-02], for which the “penetration of the plasma membrane” value in data set [1] is “readily penetrates”.
Turning to `Cc1cc(O)cc(C)c1C[C@H](NC(=O)[C@H](N)CCCNC(=N)N)C(=O)N[C@@H](CCCCN)C(=O)N[C@@H](Cc1ccccc1)C(N)=O` [SS-31, D-Arg-2′6′Dmt-Lys-Phe-NH2] (H-[dR][Dmt]KF-NH2), the “reduction in mitochondrial H2O2 emission” value in data set [2] is on record as “greater than 50%”; in [3] (dose response curve in vivo (FIG. 3B), succinate-supported respiration), “greater than 50%”. Also, the “increase in mitochondrial oxidant emitting potential” value in data set [3] (palmitoyl-carnitine supported respiration, daily SS-31 (FIG. 3D)) is listed as “completely prevented”; in [3] (succinate supported respiration, daily SS-31 (FIG. 3C)), “completely prevented”. The “basal rate of respiration” value is on record as “not affected” in data set [4] (palmitoyl-carnitine-supported, high fat fed rats (FIG. 3F)) and “not affected” in [4] (pyruvate/malate-supported, high fat fed rats (FIG. 3E)). The weight gain entry in data set [5] is “did not affect”. The GSH/GSSG ratio result in data set [6] (high fat fed rats, 10 h fast and 1 h after glucose ingestion (FIG. 3H)) is “preserved the GSH/GSSG ratio near control levels”. In addition, the “reduction in total cellular glutathione content (GSHT)” value in [6] (high fat feeding with SS-31 treatment, skeletal muscle (FIG. 3G)) was ~30%. Moreover, in [7] (high fat fed rats (FIGS. 4C and 4D)), the “development of insulin resistance (HOMA, area under the curves for blood glucose and insulin)” value is “completely blocked”. The “blood glucose response to the oral glucose challenge” value in data set [7] (high fat fed rats, 2 g/kg glucose by gavage (FIG. 4A)) is given as “normalized”. Besides, in [7] (high fat fed rats, 2 g/kg glucose by gavage (FIG. 4B)), the “insulin response to the oral glucose challenge” value is “normalized”. Besides, in the data set on Akt, the “Akt phosphorylation in response to glucose ingestion” value is listed as “completely preserved”. The “whole body and muscle insulin resistance” value with fatty (fa/fa) Zucker rat (Zucker rats (~12 weeks of age)) is “ameliorate or reduce”. Also, the “development of whole body and muscle insulin resistance” value in the data set with fatty (fa/fa) Zucker rat (young Zucker rats (~3-4 weeks of age)) was “attenuate or prevent”. Besides, at mu-opioid receptor, the “mu-opioid receptor agonist activity” value was “does not have mu-opioid receptor agonist activity”. Further, the “effect on membrane potential or respiratory control” value in data set [8] was “without affecting”. Besides, the ROS result (in data set [9]; with pancreatic islet cells; in data set [10]) was “effectively reduce ROS” throughout.
With F[dR]FK-NH2 [SS-20], the “mu-opioid receptor agonist activity” value at mu-opioid receptor is recorded as “does not have mu-opioid receptor agonist activity”.
For the molecule Tyr-D-Arg-Phe-Lys-NH2 [SS-01], on mu-opioid receptor, the “mu-opioid receptor agonist activity” value is “has mu-opioid receptor agonist activity”.
